“And” between values parts separate entries of the source, which are not always exact repeats. Equal values may be shown once. Read-outs that look alike come from different tables or passages of the source.
Tests used:
BlaC = biological target: T1, BlaC (Mycobacterium tuberculosis, UniProt P9WKD3); assay: BlaC fluorogenic inhibition assay with FC5 (dose-response); format: biochemical; conditions: Table S5 HTS hits, 30 minute inhibitor pre-incubation, two independent repeats; for IC50: pIC50 BlaC
T1 construct: made in house; host or cells: E. coli
T1 sequence (P9WKD3 35-307): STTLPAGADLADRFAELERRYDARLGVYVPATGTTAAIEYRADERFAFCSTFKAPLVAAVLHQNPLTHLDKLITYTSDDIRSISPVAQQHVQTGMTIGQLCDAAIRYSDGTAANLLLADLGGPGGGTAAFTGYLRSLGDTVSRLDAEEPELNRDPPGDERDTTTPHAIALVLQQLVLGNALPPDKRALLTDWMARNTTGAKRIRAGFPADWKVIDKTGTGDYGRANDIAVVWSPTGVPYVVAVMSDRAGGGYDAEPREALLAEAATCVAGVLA
Protocol: Two types of controls were used. […] In control 2, the BlaC mixture was substituted with the assay buffer. This mixture was incubated for 30 minutes at room temperature without shaking. […] Data were analysed using ActivityBase (IDBS).

LdtMt2 [1] = biological target: T2, LdtMt2 (Mycobacterium tuberculosis, UniProt I6Y9J2); assay: biochemical; format: binding; parameters: made in house; host or cells: E. coli; conditions: for ΔTm at 500 µM: read-out: ΔTm: difference in melting point of LdtMt2 relative to unreacted LdtMt2 (43.8 °C)
T2 sequence (I6Y9J2 56-408): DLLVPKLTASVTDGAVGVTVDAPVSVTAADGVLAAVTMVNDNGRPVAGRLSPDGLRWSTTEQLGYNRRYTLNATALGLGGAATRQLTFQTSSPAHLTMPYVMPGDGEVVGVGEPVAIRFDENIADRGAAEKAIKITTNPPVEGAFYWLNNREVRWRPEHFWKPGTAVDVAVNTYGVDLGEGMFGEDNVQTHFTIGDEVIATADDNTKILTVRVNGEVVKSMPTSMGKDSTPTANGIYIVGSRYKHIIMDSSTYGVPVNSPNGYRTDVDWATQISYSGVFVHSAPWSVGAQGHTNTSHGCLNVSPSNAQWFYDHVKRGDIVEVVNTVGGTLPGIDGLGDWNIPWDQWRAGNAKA
Protocol: LdtMt2 (5 μM) was incubated with the inhibitor (500 μM) in assay buffer (50 mM tris pH 7.5) for 30 minutes at room temperature in 96-well white PCR plates (25 μL final volume, Starlab). SYPRO Orange (final concentration 6×, according to manufacturer's definition, Invitrogen) was then added and the plate was sealed using a transparent plastic film (Polyolefin StarSeal, Starlab). Fluorescence was monitored (with λex = 492 nm and λem = 610 nm) using a CFX96 Touch Real-Time PCR Detection System (Bio-Rad), while the temperature was increased from 20 to 95 °C in increments of 0.2 °C. Melting temperatures (Tms) were determined using the CFX Maestro Software (Bio-Rad).

LdtMt2 [2] = biological target: T2, LdtMt2; assay: Rate constant of covalent target inactivation (kinact/KI), endpoint competition assay with probe 2; format: biochemical; parameters: made in house; host or cells: E. coli
LdtMt2 [3] = biological target: T2, LdtMt2; assay: biochemical; format: biochemical; parameters: made in house; host or cells: E. coli; conditions: for IC50: Table S5 HTS hits, 30 minute inhibitor pre-incubation, two independent repeats, read-out: pIC50 LdtMt2 (converted)
HepG2 cells = assay: HepG2 cytotoxicity assay (CellTiter Glo); format: cell-based; conditions: 48 h, ATP read-out
Protocol: Solutions of the test compounds (250 nL per well; 11 serial dilutions of 1/3 with starting concentration 100 μM) were dispensed in tissue-culture treated black clear-bottomed 384-well plates (Greiner, cat. no. 781091) with an Echo 555 instrument. 25 μL of HepG2 (ATCC HB-8065) cells (∼3000 cells per well) grown to confluency in Eagle's Minimal Essential Medium (MEM) supplemented with 10% (v/v) heat-inactivated FBS, 1% (v/v) non-essential amino acids (NEAA), and 1% (v/v) penicillin/streptomycin were added to each well. Plates were incubated at 37 °C with 20% O2 and 5% CO2 for 48 h. The plates were then equilibrated to room temperature. ATP levels, measured with CellTiter Glo kit (Promega), were used as cell viability read-out. 25 μL of CellTiter Glo substrate dissolved in the buffer was added to each well. Plates were incubated at room temperature for 10 min and read on ViewLux (PerkinElmer) […].

[4] = test system: M. tuberculosis (strain H37Rv) growth in THP1 cells; assay: Intracellular assay: Mtb H37Rv-Luc in THP-1 macrophages; format: cell-based, Mycobacterium tuberculosis; conditions: 5 days, extrapolated from dose-response curve
[5] = test system: M. tuberculosis (strain H37Rv); assay: Extracellular assay: M. tuberculosis H37Rv in medium under replicating conditions; format: cell-based, Mycobacterium tuberculosis
[6] = Intrinsic thiol reactivity (kchem), competition with probe 2 for L-glutathione; format: physicochemical
[7] = 100 nM LdtMt2, 10 µM probe 2, 3 h incubation, n=4
[8] = Table S5, L-glutathione 500 nM, probe 2 10 µM, 15 h
[9] = 5 µM LdtMt2, 500 µM inhibitor, SYPRO Orange, 50 mM Tris pH 7.5
[10] = 100 nM LdtMt2, 10 µM probe 2, 3 h incubation, n=4, read-out: kinact/KI

Row | Structure (SMILES) | pIC50 BlaC (BlaC) | ΔTm: difference in melting point of LdtMt2 relative to unreacted LdtMt2 (43.8 °C) (LdtMt2 [1]) | Tm: melting point of LdtMt2 after pre-incubation with the compound (LdtMt2 [1]; pH 7.5, in °C (unit assumed)) | kinact/KI (LdtMt2 [2]; [7]) [M⁻¹ s⁻¹] | LE (ligand efficiency) (LdtMt2 [3]) | IC50 (BlaC) [µM] | ΔTm at 500 µM (LdtMt2 [1]) [°C] | LE (ligand efficiency) (LdtMt2 [3]; Table S5, for LdtMt2) | IC50 (LdtMt2 [3]) [µM] | also measured
1 | Cc1ccc(C=CC(=O)Nc2ccccc2C(N)=O)o1 [Compound 11] | < 4.0 | +0.2 | 44.0 ± 0.16 | 172 ± 6.0 | 0.56 | – | – | – | – | –
2 | N#Cn1c(-c2ccnnc2)nc2ccccc21 [Compound 24] | < 4.0 | – | 42.0 ± 0.00 | 158 ± 5.7 | 0.66 | – | – | – | – | –
3 | NC(=O)OCC1=C(C(=O)O)N2C(=O)C(NC(=O)C(=CS(=O)(=O)CCc3ccc(O)c(O)c3)c3csc(N)n3)C2SC1 (centres unmarked) [Compound 20] | 7.72 | -1.1 | 42.7 ± 0.25 | – | 0.28 | – | – | – | – | IC50 (HepG2 cells): > 100 µM; MIC50 intracellular [4]: 38.9 ± 1.8 µM and < 50 µM; MIC50 [5]: > 100 µM
4 | N#Cn1cnc2ccccc21 [Compound 40] | – | – | – | – | – | – | – | – | – | kchem (apparent intrinsic thiol reactivity) ([6]; Table S10 known cyanating compounds, unit printed in b38 only): 0.90 ± 0.05 M⁻¹ s⁻¹ and 0.90 M⁻¹ s⁻¹; pIC50 LdtMt2 (LdtMt2 [3]): 6.31 ± 0.03
5 | O=C1CN(C(=O)C=Cc2ccco2)c2ccccc2N1 [Compound 12] | < 4.0 | +0.3 | 44.1 ± 0.09 | – | 0.56 | – | – | – | – | kchem (apparent intrinsic thiol reactivity) [6, 8]: 0.55 ± 0.11 M⁻¹ s⁻¹
6 | N#Cn1c(-c2cnc(-c3cccs3)nc2)nc2ccccc21 [Compound 31] | – | – | – | – | – | 11.2 | -1.7 | 0.51 | 0.0479 | Tm: melting point of LdtMt2 after pre-incubation with the compound (LdtMt2 [1]; [9]): 42.1 ± 0.10 °C; kinact/KI (LdtMt2 [2]; [10]): 609 ± 11 M⁻¹ s⁻¹
7 | COc1ccc(CN2C(=O)C(=O)c3cc(Br)cc(C)c32)cc1OC [Compound 17] | < 4.0 | +3.0 | 46.8 ± 0.00 | – | 0.47 | – | – | – | – | IC50 (HepG2 cells): 53.5 ± 6.7 µM; kchem (apparent intrinsic thiol reactivity) [6, 8]: < 0.08 M⁻¹ s⁻¹; MIC50 [5]: > 100 µM; pIC50, 0 min (LdtMt2 [3]): 6.48 ± 0.14; pIC50, 10 min (LdtMt2 [3]): 6.33 ± 0.14; pIC50, 60 min (LdtMt2 [3]): 6.28 ± 0.45; pIC50, 120 min (LdtMt2 [3]): 6.45 ± 0.26
8 | O=C(NC(Cc1ccccc1)C(=O)CCl)c1cc(Cc2ccccc2)on1 (centres unmarked) [Compound 1] | < 4.0 | – | – | 1152 ± 87 | 0.41 | – | – | – | – | MIC50 intracellular [4]: 35.5 ± 4.9 µM and < 50 µM; MIC50 [5]: > 100 µM
9 | CS(=O)(=O)c1ccc(F)c(N2C(=O)C=CC2=O)c1 [Compound 4] | – | – | – | – | – | 60.3 | 1.8 | 0.62 | 0.0871 | Tm: melting point of LdtMt2 after pre-incubation with the compound (LdtMt2 [1]; [9]): 45.6 ± 0.28 °C; kinact/KI (LdtMt2 [2]): 36.5 ± 7.9 M⁻¹ s⁻¹
10 | COc1cccc(NC(=O)/C(Cl)=C(\Cl)S(=O)(=O)Cc2ccccc2Cl)n1 [Compound 8] | – | – | – | – | – | > 100 | 0.7 | 0.43 | 0.0692 | kinact/KI (LdtMt2 [2]): 91.6 ± 2 M⁻¹ s⁻¹
11 | N#Cn1c(-c2ccncc2)nc2ccc(-c3ccco3)cc21 [Compound 33] | – | -0.5 | 43.3 ± 0.09 | 71.8 ± 1.1 | 0.51 | – | – | – | – | –
12 | N#CN1CCCN1C(=O)OCc1ccc(Cl)c(Cl)c1 [Compound 37] | – | -1.5 | 42.3 ± 0.09 | 8.44 ± 1.2 | 0.59 | – | – | – | – | –
13 | O=C1C=CC(=O)N1c1ccccc1 [Compound 3] | – | – | – | – | – | 9.33 | 1.2 | 0.86 | 0.0708 | Tm: melting point of LdtMt2 after pre-incubation with the compound (LdtMt2 [1]; [9]): 45.0 ± 0.16 °C; kinact/KI (LdtMt2 [2]): 3990 ± 356 M⁻¹ s⁻¹
14 | N#Cn1c(-c2cncnc2)nc2ccccc21 [Compound 25] | < 4.0 | – | – | 77.5 ± 6.0 | 0.66 | – | – | – | – | –
15 | Cc1ccc(C=CC(=O)Nc2ccc(S(N)(=O)=O)cc2)o1 [Compound 9] | – | – | – | 90.7 ± 4.7 | 0.53 | – | – | – | – | Tm: melting point of LdtMt2 after pre-incubation with the compound (LdtMt2 [1]; pH 7.5): 43.1 ± 0.09 °C
16 | NC(=O)C=CC(=O)Nc1ccc(Cl)cc1 [Compound 13] | – | – | – | – | – | > 100 | 1 | 0.75 | 0.417 | Tm: melting point of LdtMt2 after pre-incubation with the compound (LdtMt2 [1]; [9]): 44.8 ± 0.00 °C; kinact/KI (LdtMt2 [2]; [10]): 6.48 ± 0.11 M⁻¹ s⁻¹
17 | CCC(C)C(NC(=O)OCc1ccccc1)C(=O)CCl (centres unmarked) [Compound 2] | – | – | – | – | – | > 100 | -0.1 | 0.56 | 0.0776 | Tm: melting point of LdtMt2 after pre-incubation with the compound (LdtMt2 [1]; [9]): 43.7 ± 0.09 °C; kinact/KI (LdtMt2 [2]): 68.4 ± 3.5 M⁻¹ s⁻¹
18 | CC(N)C(=O)NC1CCN(c2ccc(N3CCCC3)cc2C#N)C1 (centres unmarked) [Compound 39] | < 4.0 | -0.7 | 43.1 ± 0.10 | – | 0.47 | – | – | – | – | IC50 (HepG2 cells): > 100 µM; MIC50 intracellular [4]: 28.8 ± 0.0 µM and < 50 µM; MIC50 [5]: > 100 µM
19 | CC(C)(C)OC(=O)Nc1ccc(N2C(=O)C=CC2=O)cc1 [Compound 6] | – | +1.7 °C | – | 127 ± 7.7 | 0.52 | – | – | – | – | Tm: melting point of LdtMt2 after pre-incubation with the compound (LdtMt2 [1]; pH 7.5): 45.5 ± 0.09 °C
20 | N#Cn1c(-c2cc(F)cc(C(F)(F)F)c2)nc2ccccc21 [Compound 23] | < 4.0 | -1.3 | 42.5 ± 0.09 | 265 | 0.51 | – | – | – | – | IC50 (HepG2 cells): 28.8 µM; MIC50 [5]: > 100 µM
21 | COc1ccc(COC(=O)C2N3C(=O)C(Br)C3S(=O)(=O)C2(C)C)cc1 (centres unmarked) [Compound 21] | – | -0.7 | 43.1 ± 0.09 | 53.2 ± 4.7 | 0.45 | – | – | – | – | –
22 | N#Cn1c(-c2ccncc2)nc2ccc(-c3ccncc3)cc21 [Compound 34] | < 4.0 | -1.7 | 42.1 ± 0.09 | 68.4 ± 2.7 | 0.49 | – | – | – | – | –
23 | O=c1c2cc(Cl)c(Cl)cc2sn1CCO [Compound 15] | – | – | – | – | – | 0.427 | -0.3 | 0.74 | 0.0102 | IC50 (HepG2 cells; Homo sapiens, HepG2): 9.55 ± 0.22 µM; Tm: melting point of LdtMt2 after pre-incubation with the compound (LdtMt2 [1]; [9]): 43.5 ± 0.09 °C; MIC50 ([5]; Mycobacterium tuberculosis): > 100 µM
24 | N#Cn1c(-c2ccc(F)cc2C(F)(F)F)nc2ccccc21 [Compound 22] | – | – | – | – | – | > 100 | -1.3 | 0.51 | 0.0295 | Tm: melting point of LdtMt2 after pre-incubation with the compound (LdtMt2 [1]; [9]): 42.5 ± 0.09 °C; kinact/KI (LdtMt2 [2]): 55.1 ± 3 M⁻¹ s⁻¹
25 | Cc1nc(-c2ccc(-c3nc4ccccc4n3C#N)cc2)cs1 [Compound 30] | – | -1.6 | 42.2 ± 0.00 | 236 ± 9.5 | 0.49 | – | – | – | – | IC50 (HepG2 cells): 3.98 ± 0.1 µM; MIC50 [5]: > 100 µM
